Experimental data taken from ChEMBL document CHEMBL4627358, “A hypoxia-activated antibacterial prodrug” (Bioorg Med Chem Lett, 2020).
In brackets after ≈: the same amount, converted by molar mass.

Assays:
Staphylococcus aureus = assay: Antibacterial activity against Staphylococcus aureus ATCC 49775 assessed as bacterial growth inhibition measured after 16 to 20 hrs by CLSI protocol based broth microdilution method; assay type: functional
Escherichia coli = assay: Antibacterial activity against Escherichia coli K-12 assessed as bacterial growth inhibition measured after 16 to 20 hrs by CLSI protocol based broth microdilution method; assay type: functional

MIC (Staphylococcus aureus) | MIC (Escherichia coli) | Structure (SMILES)
2 µg/mL (≈ 4.15 µM) | 4 µg/mL (≈ 8.3 µM) | CCCCCCCCN(Cc1c2ccccc2c(Cl)c2ccccc12)C(=O)C(N)CCCCN (centres undefined)
> 256 µg/mL | > 256 µg/mL | CCCCCCCCN(Cc1c2ccccc2c(Cl)c2ccccc12)C(=O)C(CCCCNC(=O)OCc1ccc([N+](=O)[O-])cc1)NC(=O)OCc1ccc([N+](=O)[O-])cc1 (centres undefined)
